# Results taken from ChEMBL document CHEMBL1201862, “PubChem BioAssay data set” (2004).
# Active and inactive are the calls of the source.
# What was measured:
# [1] = target: T1, Replicative DNA helicase DnaB (Mycobacterium tuberculosis, UniProt P9WMR3); test: DnaB intein splicing inhibitors, dose response, biochemical, cell-free fluorescence (AID 449749); assay type: functional
# T1 sequence (P9WMR3 whole entry): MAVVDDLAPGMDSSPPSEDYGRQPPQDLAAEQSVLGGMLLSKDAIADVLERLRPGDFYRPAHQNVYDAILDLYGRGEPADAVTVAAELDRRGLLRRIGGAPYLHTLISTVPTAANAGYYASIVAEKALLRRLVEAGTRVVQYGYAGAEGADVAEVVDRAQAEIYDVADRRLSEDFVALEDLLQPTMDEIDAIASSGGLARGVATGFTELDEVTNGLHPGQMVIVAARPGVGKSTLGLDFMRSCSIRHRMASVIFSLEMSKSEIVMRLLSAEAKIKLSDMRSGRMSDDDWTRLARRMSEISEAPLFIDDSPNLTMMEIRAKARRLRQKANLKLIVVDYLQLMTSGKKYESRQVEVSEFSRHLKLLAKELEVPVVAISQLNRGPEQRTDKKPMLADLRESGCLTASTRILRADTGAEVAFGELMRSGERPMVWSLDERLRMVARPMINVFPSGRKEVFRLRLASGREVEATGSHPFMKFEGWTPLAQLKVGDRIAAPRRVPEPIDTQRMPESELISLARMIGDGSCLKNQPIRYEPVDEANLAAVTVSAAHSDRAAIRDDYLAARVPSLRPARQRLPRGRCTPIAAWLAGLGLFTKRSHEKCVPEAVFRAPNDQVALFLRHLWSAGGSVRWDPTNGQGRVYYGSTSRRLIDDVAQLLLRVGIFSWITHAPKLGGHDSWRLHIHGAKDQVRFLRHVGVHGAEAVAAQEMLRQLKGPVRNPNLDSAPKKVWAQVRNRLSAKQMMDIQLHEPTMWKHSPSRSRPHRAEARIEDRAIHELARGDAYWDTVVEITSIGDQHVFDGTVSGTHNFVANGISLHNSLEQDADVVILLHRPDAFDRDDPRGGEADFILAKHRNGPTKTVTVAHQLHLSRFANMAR
# Protein RecA = target: T2, Protein RecA (Mycobacterium tuberculosis, UniProt P9WHJ3); test: Fluorescence Cell-Free Homogeneous Dose Retest to Identify Inhibitors of RecA-Intein Splicing Activity. [Related pubchem assays (depositor defined):AID2097, AID2223, AID489010, AID492950]; assay type: functional
# T2 sequence (P9WHJ3 whole entry): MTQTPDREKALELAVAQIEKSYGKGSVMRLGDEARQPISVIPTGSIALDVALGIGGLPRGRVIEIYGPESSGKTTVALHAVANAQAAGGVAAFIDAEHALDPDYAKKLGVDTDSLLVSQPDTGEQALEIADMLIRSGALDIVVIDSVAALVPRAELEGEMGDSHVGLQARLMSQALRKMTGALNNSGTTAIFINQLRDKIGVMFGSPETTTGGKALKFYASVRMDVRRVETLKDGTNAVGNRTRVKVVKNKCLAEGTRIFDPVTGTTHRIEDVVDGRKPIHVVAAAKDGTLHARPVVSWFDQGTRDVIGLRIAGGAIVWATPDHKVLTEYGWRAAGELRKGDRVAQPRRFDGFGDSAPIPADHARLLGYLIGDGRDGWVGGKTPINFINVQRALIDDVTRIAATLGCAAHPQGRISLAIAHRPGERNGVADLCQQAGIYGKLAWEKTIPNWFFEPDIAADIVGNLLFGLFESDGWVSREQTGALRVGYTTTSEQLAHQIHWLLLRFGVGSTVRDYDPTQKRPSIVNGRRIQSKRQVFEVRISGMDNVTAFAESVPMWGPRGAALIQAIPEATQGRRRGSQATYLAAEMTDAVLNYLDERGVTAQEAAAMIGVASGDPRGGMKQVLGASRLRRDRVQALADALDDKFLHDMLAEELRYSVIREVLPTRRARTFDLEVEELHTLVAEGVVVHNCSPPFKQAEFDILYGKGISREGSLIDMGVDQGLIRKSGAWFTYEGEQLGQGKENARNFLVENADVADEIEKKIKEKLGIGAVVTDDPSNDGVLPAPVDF
# [2] = viability of uninfected HEp-2 cells – cell-based, HTS, cytotoxicity control for RSV inhibitor project, dose response (AID 2410); assay type: functional; conditions: human respiratory syncytial virus
# H9c2 = test: cells; assay type: functional, cell-based; conditions: Rattus norvegicus, H9c2, Myocardium;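 also: confirmatory concentration-response retest of ultra-high-throughput screening hits for modulation of myocardial damage; cell death induced by hydrogen peroxide oxidative stress; compound pretreatment for 60 min then peroxide exposure for 2 h; potency is for protecting the cells against peroxide damage rather than for killing them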
# [3] = reduction of Shn3 3'UTR-driven luciferase in osteoblasts – cell-based, Clone20 osteoblasts, firefly luciferase, cherry-picked, dose response (AID 624132); assay type: functional;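 also: firefly luciferase luminescence from reporter carrying the Shn3 3'UTR in osteoblasts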
# [4] = Luminescence Cell-Based Dose Response HTS to Identify Activators of Luciferase Translation or Activity in H4 […] Cells. [Related pubchem assays: 1829 (Project Summary), 1814 (Primary HTS)]; assay type: functional
# H4 = test: Luminescence Cell-Based Dose Response HTS to Identify Activators of 5'UTR Stem-Loop Driven Prion Protein mRNA Translation in H4 Neuroglioblastoma Cells. [Related pubchem assays: 1829 (Project Summary), 1814 (Primary HTS)]; assay type: functional; conditions: Homo sapiens
# Protein skinhead-1 = target: T3, Protein skinhead-1 (Caenorhabditis elegans, UniProt P34707); assay type: functional
# T3 sequence (P34707 whole entry): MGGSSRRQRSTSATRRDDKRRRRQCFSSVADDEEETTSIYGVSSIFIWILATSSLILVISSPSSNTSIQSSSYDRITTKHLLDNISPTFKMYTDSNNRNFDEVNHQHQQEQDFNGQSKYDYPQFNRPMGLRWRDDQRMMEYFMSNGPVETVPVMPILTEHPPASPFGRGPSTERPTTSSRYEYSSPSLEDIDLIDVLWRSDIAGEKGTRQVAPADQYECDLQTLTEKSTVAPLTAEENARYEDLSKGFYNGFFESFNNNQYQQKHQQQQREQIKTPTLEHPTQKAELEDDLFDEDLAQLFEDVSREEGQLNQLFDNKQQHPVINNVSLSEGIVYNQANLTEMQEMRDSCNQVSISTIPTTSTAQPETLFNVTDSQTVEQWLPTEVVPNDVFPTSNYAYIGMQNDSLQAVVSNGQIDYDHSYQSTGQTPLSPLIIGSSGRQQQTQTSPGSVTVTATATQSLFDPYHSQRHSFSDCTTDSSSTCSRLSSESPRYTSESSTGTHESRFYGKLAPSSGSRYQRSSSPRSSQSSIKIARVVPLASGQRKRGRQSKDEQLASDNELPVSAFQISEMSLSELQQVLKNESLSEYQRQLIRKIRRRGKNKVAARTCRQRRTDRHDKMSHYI
# [5] = target: T4, RNA-binding protein pos-1 (Caenorhabditis elegans, UniProt G5EF15); test: disruptors of C. elegans POS-1 RNA interaction – biochemical, fluorescence polarization, dose response (AID 1964);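 also: purified POS-1 fused to maltose binding protein made in E. coli; potency of compounds blocking POS-1 binding to fluorescent RNA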
# T4 sequence (G5EF15 whole entry): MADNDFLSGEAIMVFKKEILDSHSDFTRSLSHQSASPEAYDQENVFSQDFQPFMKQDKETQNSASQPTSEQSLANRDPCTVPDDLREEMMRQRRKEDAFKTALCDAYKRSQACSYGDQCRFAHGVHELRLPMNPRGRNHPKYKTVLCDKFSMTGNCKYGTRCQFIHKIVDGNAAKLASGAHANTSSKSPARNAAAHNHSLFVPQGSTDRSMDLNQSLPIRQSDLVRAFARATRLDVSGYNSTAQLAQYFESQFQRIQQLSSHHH
# [6] = target: T5, Zinc finger protein mex-5 (Caenorhabditis elegans, UniProt Q9XUB2); test: potency of MEX-5 RNA-binding blockers – biochemical, C. elegans, fluorescence polarization, dose response (AID 1960)
# T5 sequence (Q9XUB2 whole entry): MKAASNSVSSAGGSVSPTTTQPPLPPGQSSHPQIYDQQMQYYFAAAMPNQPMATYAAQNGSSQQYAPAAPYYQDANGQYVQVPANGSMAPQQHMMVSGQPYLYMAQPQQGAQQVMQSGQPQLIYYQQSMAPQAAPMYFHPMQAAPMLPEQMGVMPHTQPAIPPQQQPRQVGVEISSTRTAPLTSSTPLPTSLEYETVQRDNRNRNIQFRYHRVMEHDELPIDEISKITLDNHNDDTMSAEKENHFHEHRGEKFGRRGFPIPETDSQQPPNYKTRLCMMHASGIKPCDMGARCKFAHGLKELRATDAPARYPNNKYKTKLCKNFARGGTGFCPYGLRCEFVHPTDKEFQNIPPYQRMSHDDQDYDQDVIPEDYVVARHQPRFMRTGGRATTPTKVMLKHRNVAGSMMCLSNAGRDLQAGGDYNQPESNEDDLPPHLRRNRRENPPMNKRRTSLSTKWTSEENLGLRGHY
# [7] = target: T6, Heat shock factor protein 1 (Mus musculus, UniProt P38532); test: enhancement of HSF1-driven luciferase signal – cell-based, NIH3T3, luminescence, dose retest, confirmation (AID 435004); assay type: functional;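 also: stress induced by proteasome inhibitor MG132 added 30 min after compound; luciferase reporter driven by HSF1 response element in NIH3T3 cells; actives raise luminescence as potentiators of the MG132 stress response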
# T6 sequence (P38532 whole entry): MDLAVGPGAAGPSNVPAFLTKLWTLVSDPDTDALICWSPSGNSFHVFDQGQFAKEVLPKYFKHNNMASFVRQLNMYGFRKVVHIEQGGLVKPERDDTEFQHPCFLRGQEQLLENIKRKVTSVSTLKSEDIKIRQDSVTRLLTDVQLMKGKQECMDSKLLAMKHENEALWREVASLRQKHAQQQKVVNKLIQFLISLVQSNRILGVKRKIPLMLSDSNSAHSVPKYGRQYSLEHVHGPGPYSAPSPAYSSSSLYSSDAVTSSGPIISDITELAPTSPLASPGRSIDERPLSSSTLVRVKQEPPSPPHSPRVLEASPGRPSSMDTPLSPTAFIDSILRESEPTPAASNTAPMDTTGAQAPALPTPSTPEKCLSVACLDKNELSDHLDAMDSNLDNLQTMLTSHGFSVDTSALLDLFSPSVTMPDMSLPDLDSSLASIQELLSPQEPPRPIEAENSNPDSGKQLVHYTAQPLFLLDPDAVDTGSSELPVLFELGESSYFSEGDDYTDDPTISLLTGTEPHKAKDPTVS
structure (smiles),measurement,setting,value
CCOC(=O)c1nnc(-c2cccs2)nc1Oc1ccc(Cl)cc1,AC50,[1],24.5 µM (active)
same,EC50,Protein RecA,16.5 µM (active)
Cc1ccc(S(=O)(=O)NCC2CCC(C(=O)NCCCN3CCOCC3)CC2)cc1 (stereo unspecified),AC50,[1],> 380 µM (inactive)
same,EC50,Protein RecA,> 380 µM (inactive)
CCC(C)c1ccc(NC(=O)Nc2cccnc2)cc1 (stereo unspecified),CC50,[2],22.7 µM (active)
Cc1ccc(C(=O)C(OC(=O)CN2C(=O)c3ccccc3C2=O)c2ccccc2)cc1C (stereo unspecified),AC50,[1],66.8 µM (active)
same,EC50,Protein RecA,> 380 µM (inactive)
O=C(O)CN1C(=O)/C(=C\c2cccc(OC(=O)c3ccco3)c2)SC1=S,AC50,[1],29.5 µM (active)
same,EC50,Protein RecA,22.6 µM (active)
CCOC(=O)C1CCN(c2cc3c(cc2NC(=O)c2ccccc2Br)n(C)c(=O)n3C)CC1,IC50,H9c2,67.2 µM (inactive)
same,AC50,[3],21.3 µM (active)
COc1cc2ccccc2cc1C(=O)Nc1nccs1,EC50,[4],59.4 µM (active)
same,EC50,H4,22.8 µM (active)
same,IC50,Protein skinhead-1,5.97 µM (active)
CCCCC(=O)Nc1cccc(-c2csc(-c3ccccc3)n2)c1,CC50,[2],23.9 µM (active)
CCCCCCOc1ccc(C(=O)n2cnc(N)n2)cc1,AC50,[1],21.6 µM (active)
same,EC50,Protein RecA,1.46 µM (active)
COc1ccc2c(c1)CC/C(=C/c1ccco1)C2=O,IC50,Protein skinhead-1,28.9 µM (active)
CCC(=O)Nc1cccc(-c2nc3ccc(C)cc3o2)c1,CC50,[2],39.4 µM (active)
COc1ccc(Cl)cc1NC(=O)C(C)OC(=O)c1ccc(NS(=O)(=O)c2ccc3[nH]c(O)nc3c2)cc1 (stereo unspecified),CC50,[2],15.8 µM (active)
COc1ccc(N2C(=O)/C(=C/c3ccc([N+](=O)[O-])cc3)C=C2c2ccccc2)cc1,IC50,Protein skinhead-1,> 100 µM (inactive)
O=S(=O)(c1ccccc1)N1CCC(c2nc(O)c3nnn(Cc4c(F)cccc4Cl)c3n2)CC1,CC50,[2],26 µM (active)
CCOc1ccccc1C(=O)Nc1cc2c(cc1N1CCCC1)n(CC)c(=O)n2CC,CC50,[2],13.5 µM (active)
O=C(CCl)Nc1cccc(CP(=O)(c2ccccc2)c2ccccc2)c1,AC50,[1],93.2 µM (active)
same,EC50,Protein RecA,18.4 µM (active)
CCCCCOc1ccccc1C(=O)NCCC(=O)O,IC50,Protein skinhead-1,> 100 µM (inactive)
COc1ccc(-c2[nH]nc3c2C(c2ccsc2)C(C#N)=C(N)O3)cc1 (stereo unspecified),AC50,[1],19.2 µM (active)
same,EC50,Protein RecA,13.3 µM (active)
Fc1ccc(OCc2nc(-c3cccs3)no2)cc1,IC50,Protein skinhead-1,24.5 µM (active)
O=C1c2ccccc2C(=O)N1CCCCN(C(=O)c1cccc([N+](=O)[O-])c1)c1ccc(Cl)cc1,CC50,[2],43.7 µM (active)
O=C(NCC1CCCO1)c1nn2c(C(F)(F)F)cc(-c3cc(Br)cs3)nc2c1Br (stereo unspecified),EC50,[5],> 300 µM (not active)
same,EC50,[6],> 300 µM (inconclusive)
same,EC50,[7],> 260 µM (inactive)
Cc1ccccc1-c1noc(-c2cccs2)n1,IC50,Protein skinhead-1,7.91 µM (active)
Cc1ccc2ncnc(Nc3cccc([N+](=O)[O-])c3)c2c1,IC50,Protein skinhead-1,> 100 µM (inactive)
C=CC[C@H](CC(=O)N(CCO)Cc1ccccc1)C(=O)NC[C@H](OC(=O)[C@@H](CC=C)Cc1ccc(F)cc1)c1ccccc1,AC50,[3],10.7 µM (active)
CCCC(C(=O)Nc1ccc(S(=O)(=O)N2CCOCC2)cc1)c1ccccc1 (stereo unspecified),IC50,Protein skinhead-1,> 100 µM (inactive)
CCC(C(=O)N(C(C)C)C(C)C)c1ccccc1 (stereo unspecified),IC50,Protein skinhead-1,> 100 µM (inactive)
Cc1cc(OC(=O)c2ccccc2)n(CCC#N)n1,AC50,[1],8.7 µM (active)
same,EC50,Protein RecA,2.67 µM (active)
Cc1onc(-c2c(Cl)cccc2Cl)c1C(=O)N[C@@H]1C(=O)N2[C@@H]1SC(C)(C)[C@@H]2C(=O)O [DICLOXACILLIN SODIUM],AC50,[3],46.7 µM (active)
